According to patent US20100216751A1 (priority 2007, published 2010):

Test: Pharmacokinetic evaluation of liquid bevirimat dosage forms, oral gavage, male Cynomolgus monkeys
Details: male, cynomolgus monkey, in vivo, po; for AUC / Cmax / half-life / Tmax: 200 mg
Method: Six male Cynomolgus monkeys having an initial body weight of about 3.5 to about 4.5 kg are allowed 7 days to acclimate to their individual housing units. Monkeys are supplied with water and a commercial diet ad libitum prior to the study initiation. Food is withheld from the monkeys for a minimum of twelve hours before the study and during the study until four hours postdose when food is returned. Water is supplied ad libitum.
Test formulations are administered to the monkeys at time 0 on appropriate days. Test formulations will be dosed orally via oral gavage or intravenously.
Samples are drawn at the frequencies indicated below. Each blood sample (0.5 mL) is collected from the monkey's saphenous vein via a butterfly catheter and placed into a chilled polypropylene tube containing sodium heparin as the anticoagulant. Blood samples are centrifuged at a temperature of 4° C. at a speed of 3,000 rpm for 15 minutes. All samples are maintained chilled throughout processing. Plasma is collected after centrifugation, pipetted into a 2-mL polypropylene microtube, and frozen on dry-ice pending analytical evaluation.

[1] = 50 mg/monkey, Plasma Concentration, PG/glycerin/Vitamin ETPGS/Tween80/Plasdone C15 formulation, AVG
[2] = 50 mg/monkey, Plasma Concentration, PG/glycerin/Vitamin ETPGS/Tween80/Plasdone C15 formulation, individual monkey
[3] = 50 mg/monkey, Plasma Concentration, PG/glycerin/Vitamin ETPGS/ethanol formulation, AVG
[4] = 50 mg/monkey, Plasma Concentration, PG/glycerin/Vitamin ETPGS/ethanol formulation, individual monkey
[5] = 200 mg/monkey, Plasma Concentration, PG/glycerin/Vitamin ETPGS/ethanol formulation, AVG
[6] = 200 mg/monkey, Plasma Concentration, PG/glycerin/Vitamin ETPGS/ethanol formulation, individual monkey

C=C(C)[C@@H]1CC[C@]2(C(=O)O)CC[C@]3(C)[C@H](CC[C@@H]4[C@@]5(C)CC[C@H](OC(=O)CC(C)(C)C(=O)O)C(C)(C)[C@@H]5CC[C@]43C)[C@@H]12 [Bevirimat, 3-O-(3′,3′-dimethylsuccinyl)betulinic acid]
concentration at 1 h (50 mg/monkey, Plasma Concentration, PG/glycerin/Vitamin ETPGS/Tween80/Plasdone C15 formulation, 1.0 hr, AVG): 24800 ng/mL
concentration at 2 h [1]: 61600 ng/mL
concentration at 2 h [2]: 52700 ng/mL
concentration at 4 h [1]: 53600 ng/mL
concentration at 4 h [2]: 55100 ng/mL
concentration at 6 h [1]: 32300 ng/mL
concentration at 6 h [2]: 31500 ng/mL
concentration at 8 h (50 mg/monkey, Plasma Concentration, PG/glycerin/Vitamin ETPGS/Tween80/Plasdone C15 formulation, 8.0 hr, AVG): 21000 ng/mL
concentration at 8 h (50 mg/monkey, Plasma Concentration, PG/glycerin/Vitamin ETPGS/Tween80/Plasdone C15 formulation, 8.0 hr, individual monkey): 22300 ng/mL
concentration at 12 h (50 mg/monkey, Plasma Concentration, PG/glycerin/Vitamin ETPGS/Tween80/Plasdone C15 formulation, 12 hr, AVG): 8160 ng/mL
concentration at 12 h (50 mg/monkey, Plasma Concentration, PG/glycerin/Vitamin ETPGS/Tween80/Plasdone C15 formulation, 12 hr, individual monkey): 8580 ng/mL
concentration at 24 h (50 mg/monkey, Plasma Concentration, PG/glycerin/Vitamin ETPGS/Tween80/Plasdone C15 formulation, 24 hr, AVG): 1270 ng/mL
concentration at 24 h (50 mg/monkey, Plasma Concentration, PG/glycerin/Vitamin ETPGS/Tween80/Plasdone C15 formulation, 24 hr, individual monkey): 1320 ng/mL
concentration at 48 h (50 mg/monkey, Plasma Concentration, PG/glycerin/Vitamin ETPGS/Tween80/Plasdone C15 formulation, 48 hr, AVG): 336 ng/mL
concentration at 72 h (50 mg/monkey, Plasma Concentration, PG/glycerin/Vitamin ETPGS/Tween80/Plasdone C15 formulation, 72 hr, individual monkey): 112 ng/mL
concentration at 0.25 h (50 mg/monkey, Plasma Concentration, PG/glycerin/Vitamin ETPGS/ethanol formulation, 0.25 hr, individual monkey): 78.4 ng/mL
concentration at 0.5 h (50 mg/monkey, Plasma Concentration, PG/glycerin/Vitamin ETPGS/ethanol formulation, 0.50 hr, AVG): 246 ng/mL
concentration at 1 h (50 mg/monkey, Plasma Concentration, PG/glycerin/Vitamin ETPGS/ethanol formulation, 1.0 hr, AVG): 36900 ng/mL
concentration at 2 h [3]: 60100 ng/mL
concentration at 2 h [4]: 58900 ng/mL
concentration at 4 hr [3]: 42500 ng/mL
concentration at 4 h [4]: 34500 ng/mL
concentration at 6 hr [3]: 23000 ng/mL
concentration at 8 hr (50 mg/monkey, Plasma Concentration, PG/glycerin/Vitamin ETPGS/ethanol formulation, 8.0 hr, AVG): 14700 ng/mL
concentration at 12 hr (50 mg/monkey, Plasma Concentration, PG/glycerin/Vitamin ETPGS/ethanol formulation, 12 hr, AVG): 5310 ng/mL
concentration at 24 hr (50 mg/monkey, Plasma Concentration, PG/glycerin/Vitamin ETPGS/ethanol formulation, 24 hr, AVG): 1340 ng/mL
concentration at 48 hr (50 mg/monkey, Plasma Concentration, PG/glycerin/Vitamin ETPGS/ethanol formulation, 48 hr, AVG): 149 ng/mL
AUC (AUCall): 1300 µg·h/mL
AUC (AUCall, 200 mg/monkey, PG/glycerin/Vitamin ETPGS/ethanol formulation, individual monkey): 1200 µg·h/mL
Cmax (Cmax, 200 mg/monkey, PG/glycerin/Vitamin ETPGS/ethanol formulation, AVG): 217000 ng/mL
Cmax (Cmax, 200 mg/monkey, PG/glycerin/Vitamin ETPGS/ethanol formulation, individual monkey): 202000 ng/mL
AUC (pH 8): 1970 µg·h/mL
Cmax (pH 8): 225000 ng/mL
half-life (pH 8): 8.3 h
AUC (pH 8, AUCall): 1390 µg·h/mL
Tmax (pH 8, tmax): 2 h
half-life (t1/2, oral, 200 mg/monkey, PG/glycerin/Vitamin ETPGS/ethanol formulation, AVG): 10.8 h
half-life (t1/2, oral, 200 mg/monkey, PG/glycerin/Vitamin ETPGS/ethanol formulation, individual monkey): 11.4 h
Tmax (tmax): 2 h
concentration at 0.25 hr (200 mg/monkey, Plasma Concentration, PG/glycerin/Vitamin ETPGS/ethanol formulation, 0.25 hr, AVG): 565 ng/mL
concentration at 0.5 hr (200 mg/monkey, Plasma Concentration, PG/glycerin/Vitamin ETPGS/ethanol formulation, 0.50 hr, AVG): 6020 ng/mL
concentration at 1 hr (200 mg/monkey, Plasma Concentration, PG/glycerin/Vitamin ETPGS/ethanol formulation, 1.0 hr, AVG): 64800 ng/mL
concentration at 2 hr [5]: 217000 ng/mL
concentration at 2 hr [6]: 202000 ng/mL
concentration at 4 hr [5]: 152000 ng/mL
concentration at 4 hr [6]: 166000 ng/mL
concentration at 6 hr [5]: 77800 ng/mL
